Experiments:
[1] = system: BaF3/Bcr-AblE255K cells; experiment: Apoptosis by Annexin-V staining, BaF3/Bcr-AblE255K cells; conditions: 2.0 μM vorinostat, 48 hours
Experimental: After treatment, the percentage of Annexin-V-stained apoptotic cells was determined by flow cytometry.
BaF3/Bcr-Abl, BaF3/Bcr-AblE255K, and BaF3/Bcr-AblT315I cells were treated with the indicated concentrations of vorinostat for 48 hours. After treatment, the percentage of Annexin-V-stained apoptotic cells was determined by flow cytometry.
Following treatment, the percentage of annexin-V-stained apoptotic cells was determined by flow cytometry.
Stably expressing cells were then further selected by removal of IL-3.
Untreated or drug-treated cells were stained with Annexin-V (Pharmingen, San Diego, Calif.) and propidium iodide (PI) and the percentage of apoptotic cells were determined by flow cytometry. […] The percentage of apoptotic cells was determined by flow cytometry.

[2] = system: primary IM-resistant CML cells; experiment: Percentage non-viable cells by trypan blue uptake, primary IM-resistant CML-BC cells; format: cell-based, human; conditions: 48 hours
Experimental: FIG. 6. […] Following this, the percentages of non-viable cells for each drug alone or drug combination were determined by trypan blue uptake in hemocytometer. Values represent the percentage of non-viable cells from each condition as compared to untreated cells.
Primary CML cells. CML cells from the peripheral blood and/or bone marrow of eleven patients who had met the clinical criteria of IM-resistant advanced phase of CML were harvested and purified, as previously described. Informed consents were signed by all patients to allow use of their cells for these experiments, as part of a clinical protocol approved by the University of South Florida Institutional Review Board (IRB).
Cells were stained with trypan blue (Sigma, St. Louis, Mo.).

[3] = system: normal bone marrow progenitor cells (NBMC's); experiment: Loss of survival of normal bone marrow progenitor cells; format: cell-based
[4] = system: K562 cells; experiment: Apoptosis by Annexin-V staining (flow cytometry), K562 cells; format: cell-based, human; conditions: 10 nM dasatinib, 48 hours
Experimental: Untreated or drug-treated cells were stained with Annexin-V (Pharmingen, San Diego, Calif.) and propidium iodide (PI) and the percentage of apoptotic cells were determined by flow cytometry. […] The percentage of apoptotic cells was determined by flow cytometry. The combination index (CI) for each drug combination was obtained by median dose effect of Chou and Talalay utilizing the combination index equation within the commercially available software Calcusyn (Biosoft, Ferguson, Mo.).

[5] = system: LAMA-84 cells; experiment: Apoptosis by Annexin-V staining (flow cytometry), LAMA-84 cells; format: cell-based, human; conditions: 10 nM dasatinib, 48 hours
Experimental: FIG. 1D. […] Following treatment, the percentages of annexin-V-stained apoptotic cells were measured by flow cytometry. Values represent the mean of three experiments±S.E.M.
Bcr-Abl-expressing, CML LAMA-84 and K562 cells were obtained and maintained in culture, as previously described. […] Following these treatments, cells or cell pellets were washed free of the drug(s) prior to the performance of the studies.

O=C(CCCCCCC(=O)Nc1ccccc1)NO [vorinostat, suberoylanilide hydroxamic acid]
apoptosis of BaF3/Bcr-AblE255K cells [1]: approximately 40%
loss of cell viability, all samples including #10 and #11 ([2]; 2.0 μM vorinostat alone): induced loss of cell viability in all of the samples
loss of survival of NBMC ([3]; 2.0 μM vorinostat, mean of 2 samples): 15.9%

Cc1nc(Nc2ncc(C(=O)Nc3c(C)cccc3Cl)s2)cc(N2CCN(CCO)CC2)n1 [dasatinib, N-(2-chloro-6-methylphenyl)-2-[[6-[4-(2-hydroxyethyl)-1-piperazinyl]-2-methyl-4-pyrimidinyl]amino]-5-thiazolecarboxamide]
apoptosis of K562 cells [4]: ~50%
loss of cell viability, samples #1 to #9 ([2]; IM-resistant primary CML cells, mutational status not determined): induced loss of cell viability in a dose dependent manner
effect on NBMC ([3]; dasatinib up to 20 nM): no effect
apoptosis of LAMA-84 cells [5]: approximately 90%

Source: patent US7799788B2, “Method of treating chronic myelogenous leukemia cells” (University of South Florida, priority 2006, dated 2010)
